Laboratory results published in patent publication US20260285846A1, “REV-ERB AGONISTS FOR TH17-MEDIATED INFLAMMATORY DISORDERS” (UNIVERSITY OF FLORID RESEARCH FOUNDATION, iNCORPORATED, priority 2021, published 2026).

Target: REV-ERBα LBD (Homo sapiens, UniProt P20393, DEL324-422)
Assay: biochemical
Settings: FRET assay; 6xHistag-REV-ERBα LBD with FITC-labeled SMRT corepressor peptide; read-out: REVERBα (Agonism of REV-ERBα, EC50)
Procedure: TR-FRET corepressor interaction assay. The time-resolved fluorescence resonance energy transfer (TR-FRET) assay was performed in black low-volume 384-well plates (Greiner). Each well contained 4 nM 6×Histag-REV-ERBα LBD (human; residues 281-614 A324-422) or 6×Histag-REV-ERBα LBD (human; residues 381-579) protein expressed in and purified from Escherichia coli using nickel affinity and size exclusion chromatography; 1 nM LanthaScreen Elite Tb-anti-HIS Antibody (Thermo Fisher Scientific); and 400 nM FITC-labeled peptide derived from the SMRT corepressor ([…]) containing a N-terminal FITC label with a six-carbon linker (Ahx) and an amidated C-terminus for stability (synthesized by LifeTein) in TR-FRET buffer (20 mM potassium phosphate, pH 7.4, 50 mM potassium chloride, 1 mM dithiothreitol, and 0.005% Tween-20). Ligand stocks were prepared via serial dilution in DMSO, added to wells in triplicate, and plates were incubated at 4° C. for 2 h and read using a BioTek Synergy Neo multimode plate reader. The Tb donor was excited at 340 nm; its fluorescence emission was monitored at 495 nm, and the acceptor FITC emission was measured at 520 nm; and the TR-FRET ratio was calculated as the signal at 520 nm divided by the signal at 495 nm. Data were plotted using GraphPad Prism as TR-FRET ratio vs. ligand concentration and fit to sigmoidal dose response curve equation.
Exemplary compounds of the present disclosure were assayed as described above to assess agonism of REV-ERBα. Results of the FRET assay are shown in Table 2 below (A: EC50<100 nM; B: EC50 100 nM-1000 nM; C: EC50>1000 nM; NT: not tested).

Sequence of REV-ERBα LBD (P20393 with tags, fused parts or gaps DEL324-422): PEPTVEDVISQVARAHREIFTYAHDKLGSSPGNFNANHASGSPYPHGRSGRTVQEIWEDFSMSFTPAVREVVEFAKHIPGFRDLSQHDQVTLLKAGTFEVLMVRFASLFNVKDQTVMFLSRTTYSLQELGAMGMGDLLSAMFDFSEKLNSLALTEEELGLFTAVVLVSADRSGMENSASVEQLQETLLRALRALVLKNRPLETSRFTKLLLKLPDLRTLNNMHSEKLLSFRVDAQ
Sequence of REV-ERBα LBD (Q9Y618 2335-2356 partner limits assumed): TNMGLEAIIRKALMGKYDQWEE

Row | EC50 [nM] | SMILES
1 | < 100 | CC(C)(C)Cn1cc([C@H](NS(=O)(=O)C2CC2)C(F)F)c2cc(F)c(-c3nccnc3C(F)(F)F)cc21 [Compound 57, (S)—N-(2,2-difluoro-1-(5-fluoro-1-neopentyl-6-(3-(trifluoromethyl)pyrazin-2-yl)-1H-indol-3-yl)ethyl)cyclopropanesulfonamide]
2 | < 100 | O=S(=O)(N[C@@H](c1cn(C2CCC2)c2nc(-c3cc(F)cnc3C(F)(F)F)c(F)cc12)C(F)F)C1CC1 [Compound 150, (S)—N-(1-(1-cyclobutyl-5-fluoro-6-(5-fluoro-2-(trifluoromethyl)pyridin-3-yl)-1H-pyrrolo[2,3-b]pyridin-3-yl)-2,2-difluoroethyl)cyclopropanesulfonamide]
3 | < 100 | CC(C)(C)Cn1cc([C@H](NS(=O)(=O)C2CC2)C(F)F)c2ccc(-c3cncnc3C(F)(F)F)cc21 [Compound 80, (S)—N-(2,2-difluoro-1-(1-neopentyl-6-(4-(trifluoromethyl)pyrimidin-5-yl)-1H-indol-3-yl)ethyl)cyclopropanesulfonamide]
4 | < 100 | CC(C)(C)Cn1cc([C@H](NS(=O)(=O)N2CCC2)C(F)F)c2cc(F)c(-c3ccccc3C(F)(F)F)cc21 [Compound 31, (S)—N-(2,2-difluoro-1-(5-fluoro-1-neopentyl-6-(2-(trifluoromethyl)phenyl)-1H-indol-3-yl)ethyl)azetidine-1-sulfonamide]
5 | < 100 | Cc1ncc(F)cc1-c1cc2c(cc1F)c([C@H](NS(=O)(=O)C1CC1)C(F)F)cn2CC(C)(C)C [Compound 95, (S)—N-(2,2-difluoro-1-(5-fluoro-6-(5-fluoro-2-methylpyridin-3-yl)-1-neopentyl-1H-indol-3-yl)ethyl)cyclopropanesulfonamide]
6 | < 100 | O=S(=O)(N[C@@H](c1cn(C2CC(F)C2)c2cc(-c3ccc(F)cc3C(F)(F)F)c(F)cc12)C(F)F)C1CC1 (stereo partly drawn) [Compound 181, (S)—N-(2,2-difluoro-1-(5-fluoro-6-(4-fluoro-2-(trifluoromethyl)phenyl)-1-(3-fluorocyclobutyl)-1H-indol-3-yl)ethyl)cyclopropanesulfonamide]
7 | < 100 | CN(C)S(=O)(=O)N[C@@H](c1cn(CC(C)(C)C)c2cc(-c3ccccc3C(F)(F)F)ccc12)C(F)F [Compound 21]
8 | < 100 | CC(C)(C)Cn1cc([C@H](NS(=O)(=O)C2CC2)C(F)F)c2ccc(C3CCOCC3)cc21 [Compound 174, (S)—N-(2,2-difluoro-1-(1-neopentyl-6-(tetrahydro-2H-pyran-4-yl)-1H-indol-3-yl)ethyl)cyclopropanesulfonamide]
9 | 100 to 1000 | CC(NS(=O)(=O)C1CC1)c1cn(CC(C)(C)C)c2cc(-c3ccc(C#N)nc3)c(F)cc12 (stereo not shown) [Compound 69, N-(1-(6-(6-cyanopyridin-3-yl)-5-fluoro-1-neopentyl-1H-indol-3-yl)ethyl)cyclopropanesulfonamide]
10 | < 100 | O=S(=O)(N[C@@H](c1cn(C2CCC2)c2nc(-c3cccnc3C(F)(F)F)c(F)cc12)C(F)F)C1CC1 [Compound 147]
11 | < 100 | N#CC1CC(n2cc([C@H](NS(=O)(=O)C3CC3)C(F)F)c3cc(F)c(-c4ccc(F)cc4C(F)(F)F)cc32)C1 (stereo partly drawn) [Compound 179, (S)—N-(1-(1-(3-cyanocyclobutyl)-5-fluoro-6-(4-fluoro-2-(trifluoromethyl)phenyl)-1H-indol-3-yl)-2,2-difluoroethyl)cyclopropanesulfonamide]
12 | 100 to 1000 | Cc1ccccc1-c1ccc2c([C@H](NS(=O)(=O)C3CC(F)(F)C3)C(F)F)cn(CC(C)(C)C)c2c1 [Compound 30, (S)—N-(2,2-difluoro-1-(1-neopentyl-6-(o-tolyl)-1H-indol-3-yl)ethyl)-3,3-difluorocyclobutane-1-sulfonamide]
13 | < 100 | Cc1ccccc1-c1cc2c(cc1F)c([C@H](NS(=O)(=O)C1CC1)C(F)F)cn2CC(C)(C)C [Compound 12, (S)—N-(2,2-difluoro-1-(5-fluoro-1-neopentyl-6-(o-tolyl)-1H-indol-3yl)ethyl)cyclopropanesulfonamide]
14 | < 100 | O=S(=O)(N[C@@H](c1cn(C2CC(F)C2)c2cc(-c3cc(F)cnc3C(F)(F)F)c(F)cc12)C(F)F)C1CC1 (stereo partly drawn) [Compound 182, (S)—N-(2,2-difluoro-1-(5-fluoro-6-(5-fluoro-2-(trifluoromethyl)pyridin-3-yl)-1-(3-fluorocyclobutyl)-1H-indol-3-yl)ethyl)cyclopropanesulfonamide]
15 | 100 to 1000 | CC(C)(C)Cn1cc([C@H](NS(=O)(=O)C2CC2)C(F)(F)F)c2cc(F)c(-c3ncccc3C#N)cc21 [Compound 10, (S)—N-(1-(6-(3-cyanopyridin-2-yl)-5-fluoro-1-neopentyl-1H-indol-3-yl)-2,2,2-trifluoroethyl)cyclopropanesulfonamide]
16 | < 100 | Cc1cc(C(F)(F)F)c(-c2cc3c(cc2F)c([C@H](NS(=O)(=O)C2CC2)C(F)F)cn3CC(C)(C)C)cn1 [Compound 140, (S)—N-(2,2-difluoro-1-(5-fluoro-6-(6-methyl-4-(trifluoromethyl)pyridin-3-yl)-1-neopentyl-1H-indol-3-yl)ethyl)cyclopropanesulfonamide]
17 | 100 to 1000 | CC(NS(=O)(=O)C1CC1)c1cn(CC(C)(C)C)c2cc(-c3cnccc3F)c(F)cc12 (stereo not shown) [Compound 72, N-(1-(5-fluoro-6-(4-fluoropyridin-3-yl)-1-neopentyl-1H-indol-3-yl)ethyl)cyclopropanesulfonamide]
18 | < 100 | Cc1ccc(-c2cc3c(cc2F)c([C@H](NS(=O)(=O)C2CC2)C(F)F)cn3CC(C)(C)C)c(C(F)(F)F)n1 [Compound 139, (S)—N-(2,2-difluoro-1-(5-fluoro-6-(6-methyl-2-(trifluoromethyl)pyridin-3-yl)-1-neopentyl-1H-indol-3-yl)ethyl)cyclopropanesulfonamide]
19 | < 100 | CC(C)(C)Cn1cc([C@H](NS(=O)(=O)C2CC2)C(F)F)c2ccc(-c3ncccc3C(F)(F)F)cc21 [Compound 39, (S)—N-(2,2-difluoro-1-(1-neopentyl-6-(3-(trifluoromethyl)pyridin-2-yl)-1H-indol-3-yl)ethyl)cyclopropanesulfonamide]
20 | < 100 | CC(C)(C)Cn1cc([C@H](NS(=O)(=O)C2CC2)C(F)F)c2cc(F)c(-c3cnc(C#N)cc3C(F)(F)F)cc21 [Compound 133, (S)—N-(1-(6-(6-cyano-4-(trifluoromethyl)pyridin-3-yl)-5-fluoro-1-neopentyl-1H-indol-3-yl)-2,2-difluoroethyl)cyclopropanesulfonamide]
21 | < 100 | CC(C)(C)Cn1cc([C@H](NS(=O)(=O)C2CC2)C(F)F)c2cc(F)c(C3=CCOCC3)cc21 [Compound 16, (S)—N-(1-(6-(3,6-dihydro-2H-pyran-4-yl)-5-fluoro-1-neopentyl-1H-indol-3-yl)-2,2-difluoroethyl)cyclopropanesulfonamide]
22 | < 100 | CC(C)(C)Cn1cc([C@H](NS(=O)(=O)C2CC2)C(F)F)c2ccc(-c3cccnc3C#N)cc21 [Compound 49, (S)—N-(1-(6-(2-cyanopyridin-3-yl)-1-neopentyl-1H-indol-3-yl)-2,2-difluoroethyl)cyclopropanesulfonamide]
23 | < 100 | CC(NS(=O)(=O)C1CC1)c1cn(CC(C)(C)C)c2cc(-c3ncccc3Cl)c(F)cc12 (stereo not shown) [Compound 58, N-[1-[6-(3-chloro-2-pyridyl)-1-(2,2-dimethylpropyl)-5-fluoro-indol-3-yl]ethyl]cyclopropanesulfonamide]
24 | < 100 | O=S(=O)(N[C@@H](c1cn(C2CCC2)c2nc(-c3cc(Cl)cnc3C(F)(F)F)c(F)cc12)C(F)F)C1CC1 [Compound 165, (S)—N-(1-(6-(5-chloro-2-(trifluoromethyl)pyridin-3-yl)-1-cyclobutyl-5-fluoro-1H-pyrrolo[2,3-b]pyridin-3-yl)-2,2-difluoroethyl)cyclopropanesulfonamide]
25 | 100 to 1000 | CC(NS(=O)(=O)C1CC1)c1cn(CC(C)(C)C)c2cc(-c3ncccc3C#N)c(F)cc12 (single isomer, unassigned) [Compound 20, (S or R)—N-(1-(6-(3-cyanopyridin-2-yl)-5-fluoro-1-neopentyl-1H-indol-3-yl)ethyl)cyclopropanesulfonamide]
26 | < 100 | CC(NS(=O)(=O)C1CC1)c1cn(CC(C)(C)C)c2cc(-c3ncccc3C#N)c(F)cc12 (single isomer, unassigned) [Compound 19, (R or S)—N-(1-(6-(3-cyanopyridin-2-yl)-5-fluoro-1-neopentyl-1H-indol-3-yl)ethyl)cyclopropanesulfonamide]
27 | < 100 | CC(C)(C)Cn1cc([C@H](NS(=O)(=O)C2CC2)C(F)F)c2ccc(-c3ncc(F)cc3C#N)cc21 [Compound 88, (S)—N-(1-(6-(3-cyano-5-fluoropyridin-2-yl)-1-neopentyl-1H-indol-3-yl)-2,2-difluoroethyl)cyclopropanesulfonamide]
28 | < 100 | CC(C)(C)Cn1cc([C@H](NS(=O)(=O)C2CC2)C(F)F)c2cc(F)c(-c3ccc(F)cc3C(F)(F)F)cc21 [Compound 164, (S)—N-(2,2-difluoro-1-(5-fluoro-6-(4-fluoro-2-(trifluoromethyl)phenyl)-1-neopentyl-1H-indol-3-yl)ethyl)cyclopropanesulfonamide]
